How the values were obtained:
[1] = molecular target: T1, Dolichol-phosphate-mannose synthase (Trypanosoma brucei brucei) (UniProt Q5QQ41); details: 1 mM
T1 sequence (whole entry): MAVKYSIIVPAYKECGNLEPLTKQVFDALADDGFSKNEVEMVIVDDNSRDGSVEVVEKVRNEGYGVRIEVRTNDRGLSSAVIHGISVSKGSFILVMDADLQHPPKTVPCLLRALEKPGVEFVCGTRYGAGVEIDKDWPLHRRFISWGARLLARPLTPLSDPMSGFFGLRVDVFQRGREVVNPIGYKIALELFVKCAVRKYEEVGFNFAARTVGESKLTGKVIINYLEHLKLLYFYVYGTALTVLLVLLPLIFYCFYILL

Chain of 4-aminobutyrate aminotransferase, mitochondrial (Homo sapiens), P80404 (P80404 whole entry): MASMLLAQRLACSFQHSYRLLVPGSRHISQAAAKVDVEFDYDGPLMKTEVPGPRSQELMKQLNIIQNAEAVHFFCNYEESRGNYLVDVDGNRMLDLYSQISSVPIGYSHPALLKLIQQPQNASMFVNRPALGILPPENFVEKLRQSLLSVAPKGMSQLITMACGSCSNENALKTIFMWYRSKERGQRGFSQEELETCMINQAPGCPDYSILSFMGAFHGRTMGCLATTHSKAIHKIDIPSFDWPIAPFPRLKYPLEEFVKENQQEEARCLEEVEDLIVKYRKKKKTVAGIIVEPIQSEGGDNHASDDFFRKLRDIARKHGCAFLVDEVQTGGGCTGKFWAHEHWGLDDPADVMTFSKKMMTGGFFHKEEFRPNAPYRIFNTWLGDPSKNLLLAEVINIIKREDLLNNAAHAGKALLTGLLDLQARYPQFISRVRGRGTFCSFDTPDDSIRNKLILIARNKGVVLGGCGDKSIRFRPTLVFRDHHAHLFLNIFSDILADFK

Row | Compound | Km (NCCCC(=O)O) [µM] | inhibition [1] [%]
1 | 4-aminobutyrate aminotransferase, mitochondrial (Homo sapiens), P80404 | 2500 | 
2 | Nc1nc2c(ncn2[C@@H]2O[C@H](COP(=O)(O)OP(=O)(O)O)[C@@H](O)[C@H]2O)c(=O)[nH]1 |  | 8.5
3 | Nc1nc2c(ncn2[C@@H]2O[C@H](CNc3c(NCc4ccccc4C(=O)O)c(=O)c3=O)[C@@H](O)[C@H]2O)c(=O)[nH]1 |  | 64

From ChEMBL document CHEMBL2203023, “Synopsis of some recent tactical application of bioisosteres in drug design” (J Med Chem, 2011)
